Measured values taken from patent US20260315653A1, “ANTICOAGULANT COMPOSITIONS COMPRISING ANTI-PLATELET AND ANTI-INFLAMMATORY DRUGS AND METHODS AND DEVICES FOR THEIR USE” (Elixir Medical Corporation, priority 2023, published 2026).
“Also recorded” adds a separate entry of the source.

What was measured:
[1] = tested on: blood clotting (citrated sheep blood); assay: Activated clotting time (ACT) in citrated sheep blood (Example 2); settings: single drug, 0.6 ng/mg
Experimental: The activated clotting time (ACT) evaluation of anticoagulants was performed in calcium citrate sheep blood and recorded employing the Hemochron® Response device.
The ACT measurements were made in citrated sheep blood. 1.9 ml of citrated sheep blood was added to a test tube containing an activator (Hemochron@Celite@ ACT tubes, Lot F8FTE026 from Accriva Diagnostics, Inc.). A target amount of drug solution was then added into the test tube. The test tube was gently swirled so that the blood and drug was well-mixed. 0.1 ml of 0.3M calcium chloride was then added. The tube was gently shaken before being inserted into the Hemochron Response detector. The ACT read out was recorded and reported. The ACT of the control blood in the absence of any drug as first determined to establish a baseline. Then ACT was determined in the presence of different concentrations of the drug as a single component. Selected drug combinations were then tested to evaluate for potential synergy in action between the two drugs.

[2] = tested on: blood clotting (citrated sheep blood); assay: Net activated clotting time (net ACT) in citrated sheep blood (Examples 3-5); design: key: seconds; measured ACT minus blood control ACT (165 s); settings: single drug, blood control 165 seconds
Experimental: The activated clotting time (ACT) evaluation of anticoagulants was performed in calcium citrate sheep blood and recorded employing the Hemochron® Response device. The ACT measurements were made in citrated sheep blood. 1.9 ml of citrated sheep blood was added to a test tube containing an activator (Hemochron@Celite@ ACT tubes, Lot F8FTE026 from Accriva Diagnostics, Inc.). A target amount of drug solution was then added into the test tube. The test tube was gently swirled so that the blood and drug were well-mixed. 0.1 ml of 0.3M calcium chloride was then added. The tube was gently shaken before being inserted into the Hemochron Response detector. The ACT read out was recorded and reported. The ACT of the control blood in the absence of any drug as first determined to establish a baseline. Here the blood control measured is 165 seconds. Then ACT was determined in the presence of different concentrations of the drug as a single component. In the following study, the net ACT (measured ACT minus blood control ACT) was utilized to visualize the synergistic effect of direct factor Xa inhibitor (Rivaroxaban) and direct factor IIa inhibitor (Argatroban) drug combinations. The figures are presented in ng/mg wherein the density of blood and tissue are approximately the same.
Example 4 is the continuation of example 3, which employed the same method as in example 3. The only difference is that the direct factor Xa inhibitor Edoxaban is used in place of direct factor Xa inhibitor Rivaroxaban.
Example 5 is the continuation of example 3, which employed the same method as in example 3. The only difference is that the direct factor Xa inhibitor Betrixaban is used in place of direct factor Xa inhibitor Rivaroxaban.

[3] = tested on: blood clotting (heparinized sheep blood); assay: Net ACT initiated by platelet activation factor (PAF) and CaCl2 in heparinized sheep blood (Examples 6-11); settings: single drug, 0.05 ng/mg; PAF & CaCl2; blood control 235 seconds
Experimental: In order to examine the potential synergistic effects between anti-inflammatory agents, direct factor Xa inhibitors, direct factor IIa inhibitors, antiplatelets (P2Y12 inhibitor and glycoprotein IIb/IIIa inhibitor, platelet activation factor and CaCl2 were utilized by measuring ACT. Heparinized sheep blood was used to preserve platelet function.
The activated clotting time (ACT) evaluation initiated by platelet activation factor (PAF) and calcium chloride (CaCl2) was performed in heparinized sheep blood and recorded employing the Hemochron® Response device. […] A target amount of drug solution was then added into the test tube. The test tube was gently swirled so that the blood and drug were well-mixed. […] The tube was gently shaken before being inserted into the Hemochron Response detector. The ACT read out was recorded and reported. The ACT of the control heparinized sheep blood in the absence of any drug as first measured to establish a baseline. […] Then ACT was measured in the presence of different concentrations of the drug measured. Selected drug combinations were then tested to evaluate for potential synergy in action between the drug combination. The net ACT (ACT minus blood control ACT) was utilized to visualize the synergistic effect. […] The figures are presented in ng/mg wherein the density of blood and tissue are approximately the same.

[4] = tested on: porcine coronary artery; assay: In vivo porcine coronary stent implantation: fibrin score and late lumen loss (Examples 25-26); settings: for inhibition of fibrin formation compared to control: Table 10, 7 days and 28 days
Experimental: The drug eluting stent systems containing different anticoagulants prepared as described in Example 11 were evaluated at 3 hours, 6 hours, 1 day, 3 days, 6 days, 7 days, or 28 days following implantation in a porcine coronary artery model.
The porcine model was chosen as this model has been used extensively for stent and angioplasty studies resulting in a large volume of data on the vascular response properties and its correlation to human vascular response (Schwartz et al, Circulation. 2002; 106:1867 1873). The animals were housed and cared for in accordance with the Guide for the Care and Use of Laboratory Animals as established by the National Research Council.
After induction of anesthesia, the left or right femoral artery was accessed using standard techniques and an arterial sheath was introduced and advanced into the artery. Vessel angiography was performed under fluoroscopic guidance, a 7 Fr. guide catheter was inserted through the sheath and advanced to the appropriate location where intracoronary nitroglycerin was administered. An appropriate implantation segment of coronary artery was randomly selected and a 0.014″ guidewire inserted. Quantitative Coronary Angiography (QCA) was performed to document the results. The appropriately size stent was advanced to the deployment site. The balloon was inflated at a steady rate to a pressure sufficient to achieve a balloon to artery ratio of approximately 1.1 to 1.0.
Follow up angiography was performed at the designated timepoint for each of the animals. Late lumen loss (LLL) can be expressed as: […]
The LLL is an indicator of the amount smooth muscle cell (SMC) proliferation or inhibition. It is used to measure efficacy between drugs for SMC proliferation inhibition. The smaller the LLL, the better the efficacy of the drug.
Stented portions of coronary arteries were embedded in methyl methacrylate (MMA), then divided into a target of at least three blocks of approximately similar lengths for histology evaluation. Quantitative histopathological evaluation of stented artery sections was then performed and scored as indicated. For Fibrin formation, scores ranged from 0 to 3, with a score of 0 indicating absent or rare minimal spotting around struts of the stent, a score of 1 indicating the presence of fibrin in small amounts localized only around the struts, a score of 2 indicating the moderately abundant or denser presence of fibrin around and extending beyond the struts, and a score of 3 indicating the presence of abundant and dense fibrin and/or bridging of the fibrin between the struts. The mean score was calculated and reported. The mean of each section was then averaged to provide a mean fibrin score per stent. The smaller the fibrin score, the better efficacy.

[5] = In vivo drug release from / drug remaining on implanted stents (HPLC); design: species or system porcine; settings: 7 days, n = 5
Experimental: The percentage and/or amount of each anticoagulant drug for or by each time point indicated were analyzed for each stent from the different devices in the example and the average drug tissue concentration reported.
Tissue concentrations and the amount of drug released from the stents were measured using stents implanted in porcine arteries for the drugs as indicated. The arteries at the designated time point were excised and a length of stented artery spanning from 5 mm proximal to the stented segment to 5 mm distal to the stented segment was cut. The stented artery was cut longitudinally with surgical scissors. The stents were separated from the tissue. The tissue content of each drug was analyzed using liquid chromatography mass spectroscopy (LCMS) and reported as a mean for each of the timepoint indicated. For drug remaining on each stent, each drug was extracted from the stent, measured using HPLC, and reported as a mean for each of the timepoint indicated as drug released or drug remaining on a stent (where drug remaining is equal to 100% minus the percentage of drug released).

[6] = tested on: platelets (Tissue factor generated antiplatelet); settings: cited from earlier work

Row | SMILES | ACT [1] | net ACT ([2]; 0.15 ng/mg) | net ACT ([2]; 0.3 ng/mg) | net ACT [3] [s] | inhibition of fibrin formation compared to bare metal control stents ([4]; Table 9, day 7) | inhibition of fibrin formation compared to control [4] | inhibition of fibrin formation compared to control ([4]; listed as Rivamomaban) | Cumulative Percent Release of drug: Rivaroxaban [5] | Cumulative Percent Release of drug: Rivaroxaban ([5]; listed as Rivamomaban) | IC50 [6] [nM] | IC50 for Tissue factor generated antiplatelet [6] [ng/mg]
1 | COc1ccc(-n2nc(C(N)=O)c3c2C(=O)N(c2ccc(N4CCCCC4=O)cc2)CC3)cc1 [Apixaban] | 522 | – | – | – | – | – | – | – | – | – | –
2 | O=C(NC[C@H]1CN(c2ccc(N3CCOCC3=O)cc2)C(=O)O1)c1ccc(Cl)s1 [Rivaroxaban] | – | 114 | 139 | 166 | effective at inhibiting fibrin formation | effective at inhibiting fibrin formation compared to control at 7 days and at 28 days when it was released at a faster rate and/or at a larger dose; also recorded: not effective at inhibiting fibrin formation compared to control at 28 days when it was released at a slower rate and/or at a smaller dose; also recorded: more effective at inhibiting fibrin formation compared to control at 7 days and at 28 days; also recorded: not effective at inhibiting fibrin formation compared to control at 28 days | more effective at inhibiting fibrin formation compared to control at 7 days and at 28 days | at least 88.9% | at least 99.7% | 312 | 0.136
